This is an account of results in US6858638B2, “Substituted indazoles, compositions containing them, method of production and use” (Aventis Pharma S.A., priority 2002, dated 2005).

What is called melting point is the temperature of the solid-liquid transition.

Data set [1] concerns the target T1, human FAK (Homo sapiens, UniProt Q05397).
T1 construct: The complete cDNA of human FAK; made in house; host or cells: baculovirus expression system (vector pFastBac HTc)
Put plainly: FAK autophosphorylation inhibition, time resolved fluorescence (HTRF) assay. Type of data set: biochemical. To be noted: for inhibition at 30 µM: 30 μM (values marked *), read-out: FAK % inhib at 30* μM; for inhibition at 10 µM: read-out: FAK % inhib at 10 μM. A digest of the protocol:
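Autophosphorylation was detected by europium-cryptate anti-pTyr and XL665 anti-His energy transfer, percent inhibition from the 665/620 ratio relative to no-compound wells. Enzyme: His-FAK full length, 6.6 µg/ml, incubated 1 h at 37 °C, pH 7.2, 15 µM ATP.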

The target in data set [2] is T2, human KDR enzyme (Homo sapiens, UniProt P35968).
T2 construct: The cytoplasmic domain of the human KDR enzyme; GST; made in house; host or cells: SF21 insect cells (baculovirus)
Put plainly: KDR substrate (PLCγ) phosphorylation, scintillation assay. In kind it is biochemical. To be noted: 10 μM; for inhibition at 10 µM: read-out: KDR % inhib at 10 μM. A digest of the protocol:
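Values are percent inhibition relative to the compound-free control, read by scintillation counting of 33P incorporation after EDTA stop. Baculovirus/SF21-expressed GST-KDR cytoplasmic domain (100 ng) acted for 1 h at 37 °C in pH 7.2 MOPS kinase buffer. The substrate was GST-PLCγ SH2-SH3 (2 μg), added with γ33P-ATP and 2 μM unlabeled ATP.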

Data set [3] has as its target T3, Aurora2 kinase (Homo sapiens, UniProt O14965).
T3 construct: A complete recombinant Aurora2 enzyme; His tag (N); made in house; host or cells: E. coli
T3 sequence (O14965 1-403): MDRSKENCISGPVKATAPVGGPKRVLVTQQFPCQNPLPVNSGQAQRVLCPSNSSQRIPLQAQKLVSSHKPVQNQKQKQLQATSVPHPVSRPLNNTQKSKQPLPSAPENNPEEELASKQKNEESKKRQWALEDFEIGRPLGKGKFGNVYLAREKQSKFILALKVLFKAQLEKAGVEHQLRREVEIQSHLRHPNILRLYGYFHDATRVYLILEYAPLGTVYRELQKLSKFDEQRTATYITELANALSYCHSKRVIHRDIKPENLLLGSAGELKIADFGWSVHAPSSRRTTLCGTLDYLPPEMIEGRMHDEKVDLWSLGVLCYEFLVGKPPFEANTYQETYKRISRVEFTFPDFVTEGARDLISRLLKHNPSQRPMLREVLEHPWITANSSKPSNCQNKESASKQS
Put plainly: Aurora2 kinase radioactivity scintillation assay using nickel chelate (NuMA substrate). In kind it is biochemical. To be noted: 10 μM; for inhibition at 10 µM: read-out: Aurora2 % inhib at 10 μM. A digest of the protocol:
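Read-out is 33P incorporation into His-NuMA (Q1687-H2101, 0.5 μM) captured on nickel chelate, after 30 min at 37 °C with 0.02 μM His-Aurora2 and 1 μM ATP. Expressed as percentage inhibition of uncompounded control activity, background subtracted.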

The subject of data set [4] is c-Src protein. Put plainly: Src kinase phosphorylation of biotinylated cdc2 substrate, fluorescence (DELFIA). In kind it is biochemical, human. The protocol: The inhibition of the Src kinase is evaluated by measuring the phosphorylation of the biotinylated cdc2 substrate (Pierce) detected by fluorescence (DELFIA) using an antiphosphotyrosine antibody labeled with Europium, in 96-well Wallac plates. The c-Src protein used is a recombinant human protein produced in Baculovirus, comprising the SH3 and SH2 and the catalytic domains. The enzyme, the substrate and the various concentrations of test compounds are placed in the well in a 50 mM Tris buffer containing 10 mM MgCl2. The reaction is initiated by adding 10 μM of ATP. After incubation for 60 minutes at 30° C., the reaction is stopped by adding 75 mM EDTA. 50 μl are taken from each well and transferred into a plate coated with streptavidin. After incubation for 30 minutes at 25° C., the wells are washed with a washing buffer (Wallac) and then the antiphosphotyrosine antibody (PY20-Europium [Perkin Elmer]) is added in a volume of 75 μl. The plate is incubated for 30 minutes at 25° C. and then an “Enhancer” solution (Wallac) is added before reading the fluorescence using a fluorimeter (Perkin Elmer). The background noise is evaluated in triplicate in wells containing the substrate and the antibody in the absence of enzyme. The activity of the enzyme is measured (in triplicate) in the wells containing all the reagents in the absence of compound. The inhibition of the Src activity is expressed as percentage inhibition of the activity of the control determined in the absence of compound. The compound PP2 (Calbiochem) is included at various concentrations in each experiment as an inhibition control.

In data set [5] the target is T4, human IGF1R cytoplasmic domain (Homo sapiens, UniProt P08069).
T4 construct: The human IGF1R cytoplasmic domain was cloned; made in house; host or cells: SF21 insect cells (baculovirus)
The data set is described as follows: IGF1R autophosphorylation inhibition, time resolved fluorescence (HTRF) assay. In kind it is biochemical. To be noted: 10 μM. A digest of the protocol: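 GST-tagged human IGF1R cytoplasmic domain from SF21 cells incubated with compound in 50 mM Hepes pH 7.5, 5 mM MnCl2, 50 mM NaCl, […] ATP. Autophosphorylation detected by HTRF (Eu-K anti-phosphotyrosine, XL665 anti-GST) after EDTA/KF stop; percentage inhibition versus no-compound control.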
A general note: In TR-FRET formats the signal depends on donor and acceptor labels being close together.

[6] abbreviates: 10 μM (values without asterisk).

Each structure is given as a SMILES string.

T1 sequence (Q05397 whole entry): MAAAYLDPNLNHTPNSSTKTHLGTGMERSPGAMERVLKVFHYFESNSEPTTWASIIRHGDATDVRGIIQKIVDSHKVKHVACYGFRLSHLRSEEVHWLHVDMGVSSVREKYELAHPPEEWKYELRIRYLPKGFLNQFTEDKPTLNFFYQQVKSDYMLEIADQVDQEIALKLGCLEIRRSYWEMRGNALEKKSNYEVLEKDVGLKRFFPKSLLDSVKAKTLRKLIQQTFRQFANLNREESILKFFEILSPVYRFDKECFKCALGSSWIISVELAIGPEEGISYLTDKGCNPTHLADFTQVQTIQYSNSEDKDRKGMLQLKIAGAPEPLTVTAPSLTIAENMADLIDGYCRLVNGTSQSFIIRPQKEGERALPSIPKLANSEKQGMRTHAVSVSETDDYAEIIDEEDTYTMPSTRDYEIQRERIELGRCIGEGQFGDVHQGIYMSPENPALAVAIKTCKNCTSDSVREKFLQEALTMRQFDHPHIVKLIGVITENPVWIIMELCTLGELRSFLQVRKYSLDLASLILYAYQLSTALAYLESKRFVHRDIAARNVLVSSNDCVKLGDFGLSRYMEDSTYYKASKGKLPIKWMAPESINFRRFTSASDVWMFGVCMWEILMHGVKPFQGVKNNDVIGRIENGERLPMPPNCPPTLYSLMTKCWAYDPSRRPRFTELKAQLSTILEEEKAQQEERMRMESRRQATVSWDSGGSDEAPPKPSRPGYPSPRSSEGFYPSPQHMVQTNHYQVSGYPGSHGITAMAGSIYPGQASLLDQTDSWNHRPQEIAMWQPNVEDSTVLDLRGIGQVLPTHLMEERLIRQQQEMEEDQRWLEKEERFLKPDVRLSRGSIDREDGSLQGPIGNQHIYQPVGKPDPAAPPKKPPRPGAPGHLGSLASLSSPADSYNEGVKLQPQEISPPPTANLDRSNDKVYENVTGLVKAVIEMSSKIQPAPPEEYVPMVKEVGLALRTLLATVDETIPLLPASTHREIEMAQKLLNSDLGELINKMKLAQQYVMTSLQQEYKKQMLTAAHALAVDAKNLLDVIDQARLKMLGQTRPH
T2 sequence (P35968 786-1356 limits assumed): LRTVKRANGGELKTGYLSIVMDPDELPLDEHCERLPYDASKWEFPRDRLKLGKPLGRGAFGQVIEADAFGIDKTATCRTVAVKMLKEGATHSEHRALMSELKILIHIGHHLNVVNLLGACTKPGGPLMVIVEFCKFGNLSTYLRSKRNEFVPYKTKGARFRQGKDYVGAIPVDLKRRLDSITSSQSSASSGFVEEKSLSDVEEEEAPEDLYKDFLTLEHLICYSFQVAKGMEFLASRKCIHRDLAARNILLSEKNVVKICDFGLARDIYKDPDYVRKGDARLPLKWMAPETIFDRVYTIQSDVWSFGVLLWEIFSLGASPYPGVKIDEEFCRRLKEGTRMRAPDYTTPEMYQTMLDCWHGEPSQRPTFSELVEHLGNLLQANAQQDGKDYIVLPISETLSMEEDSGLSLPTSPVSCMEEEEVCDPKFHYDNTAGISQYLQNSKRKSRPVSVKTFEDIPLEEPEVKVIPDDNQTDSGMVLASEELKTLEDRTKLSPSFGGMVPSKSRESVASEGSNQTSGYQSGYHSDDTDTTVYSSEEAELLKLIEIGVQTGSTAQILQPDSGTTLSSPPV
T4 sequence (P08069 960-1367 limits assumed): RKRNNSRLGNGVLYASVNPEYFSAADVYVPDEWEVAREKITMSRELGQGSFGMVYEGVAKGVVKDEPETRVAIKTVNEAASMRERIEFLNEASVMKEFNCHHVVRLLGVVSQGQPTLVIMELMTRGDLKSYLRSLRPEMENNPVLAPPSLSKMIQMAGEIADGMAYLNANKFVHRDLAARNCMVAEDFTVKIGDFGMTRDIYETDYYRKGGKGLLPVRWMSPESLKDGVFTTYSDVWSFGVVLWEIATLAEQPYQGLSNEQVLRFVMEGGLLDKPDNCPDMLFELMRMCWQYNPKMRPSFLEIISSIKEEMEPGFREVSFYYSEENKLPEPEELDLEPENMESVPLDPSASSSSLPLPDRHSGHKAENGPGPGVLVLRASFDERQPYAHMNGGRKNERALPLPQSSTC

In turn, `CS(=O)(=O)c1ccccc1S(=O)(=O)Nc1ccc2[nH]nc(-c3ccc(C(=O)O)cc3)c2c1` (hydrate or solvate) [Example 69, 4-[5-(2-Methylsulfonylbenzenesulfonamino)-1H-indazol-3-yl]benzoic acid] had a melting point of 199 °C.
`N#Cc1n[nH]c2ccc(NS(=O)(=O)c3cccc(F)c3)cc12` [Example 4, N-(3-Cyano-1H-indazol-5-yl)-3-fluorobenzenesulfonamide] came in with a melting point of 227 °C. In data set [1], the inhibition at 30 µM was determined as 85%. Also, the inhibition at 10 µM in data set [2] stood at 24%.
`O=S(=O)(Nc1ccc2[nH]ncc2c1)c1ccc(Cl)c(Cl)c1` [Example 14, 3,4-Dichloro-N-(1H-indazol-5-yl)benzenesulfonamide]: the melting point amounted to 209 °C. In addition, the inhibition at 10 µM in data set [1] (setting [6]) came to 42%.
On to `CS(=O)(=O)c1ccccc1S(=O)(=O)Nc1ccc2[nH]nc(C(=O)Nc3ccccc3)c2c1` [Example 18, N-Phenyl-5-(2-methylsulfonylbenzenesulfonylamino)-1H-indazole-3-carboxamide], for which the melting point is 258 °C. Besides, the inhibition at 10 µM in data set [1] (setting [6]) is 89%. In data set [2], the inhibition at 10 µM stood at 18%. For the same compound, the inhibition at 10 µM in data set [3] stood at 97%.
Consider `O=C(Nc1n[nH]c2ccc(NS(=O)(=O)c3cccc(F)c3)cc12)c1ccccc1` [Example 23, N-[5-(3-Fluorobenzenesulfonylamino)-1H-indazol-3-yl]benzamide], for which the melting point is 225 °C. Also, in data set [1] (setting [6]), the inhibition at 10 µM worked out at 93%. For the same compound, the inhibition at 10 µM in data set [3] is 99%.
In the case of `O=S(=O)(Nc1ccc2[nH]ncc2c1)c1ccccc1` [Example 24, N-(1H-Indazol-5-yl)benzenesulfonamide], the melting point is 179 °C. Besides, the inhibition at 10 µM in data set [1] (setting [6]) was 76%. Moreover, the inhibition at 10 µM in data set [2] was found to be 10%. The inhibition at 10 µM in data set [3] was found to be 60%.
`Cc1n[nH]c2ccc(NS(=O)(=O)c3ccc(Cl)c(Cl)c3)cc12` [Example 25, 3,4-Dichloro-N-(3-methyl-1H-indazol-5-yl)benzenesulfonamide] registered a melting point of 184 °C. The inhibition at 30 µM in data set [1] stood at 38%. In addition, in data set [2], the inhibition at 10 µM stood at 11%. The inhibition at 10 µM in data set [3] came out at 50%.
In turn, `COc1ccc(-c2n[nH]c3ccc(NS(=O)(=O)c4ccccc4)cc23)cc1` [Example 31, N-[3-(4-Methoxyphenyl)-1H-indazol-5-yl]benzenesulfonamide] displayed a melting point of 172 °C. Besides, the inhibition at 10 µM in data set [1] (setting [6]) came out at 75%. The inhibition at 10 µM in data set [2] was 98%. In data set [3], the inhibition at 10 µM was 90%.
In the case of `CS(=O)(=O)c1ccccc1S(=O)(=O)Nc1ccc2[nH]nc(Br)c2c1` [Example 38, N-(3-Bromo-1H-indazol-5-yl)-2-methylsulfonylbenzenesulfonamide], the inhibition at 10 µM in data set [1] (setting [6]) stood at 69%; in data set [2], 3%; in data set [3] it was 86%. Besides, in data set [4], the “SRC % inhib at 10 μM” value turned out to be 56%.
Turning to `CC(=O)Nc1ccccc1-c1n[nH]c2ccc(NS(=O)(=O)c3ccccc3S(C)(=O)=O)cc12` [Example 48, N-{2-[5-(2-Methylsulfonylbenzenesulfonylamino)-1H-indazol-3-yl]phenyl}acetamide], the melting point was 245 °C. Further, the inhibition at 10 µM in data set [1] (setting [6]) worked out at 5%. Moreover, the inhibition at 10 µM in data set [2] is 9%. The inhibition at 10 µM in data set [3] was 42%.
The compound `CS(=O)(=O)c1ccccc1S(=O)(=O)Nc1ccc2[nH]nc(-c3cccs3)c2c1` [Example 50, 2-Methylsulfonyl-N-(3-thiophen-2-yl-1H-indazol-5-yl)benzenesulfonamide] returned a melting point of 246 °C. Also, in data set [1] (10 μM (values without asterisk), 10 µM), the “FAK % inhib at 10 μM” value stood at 99%. Also, the “KDR % inhib at 10 μM” value in data set [2] was 80%. In data set [3], the “Aurora2 % inhib at 10 μM” value is on record as 91%. The “IGF1R % inhib at 10 μM” value in data set [5] is given as 63%.
In turn, `CS(=O)(=O)c1ccccc1S(=O)(=O)Nc1ccc2[nH]nc(-c3ccsc3)c2c1` [Example 51, 2-Methylsulfonyl-N-(3-thiophen-3-yl-1H-indazol-5-yl)benzenesulfonamide] registered a melting point of 249 °C. In data set [1] (setting [6]), the inhibition at 10 µM amounted to 90%. Besides, the inhibition at 10 µM in data set [2] turned out to be 55%. Moreover, the inhibition at 10 µM in data set [3] turned out to be 88%.
The like results for `COC(=O)c1ccc(-c2n[nH]c3ccc(NS(=O)(=O)c4ccccc4S(C)(=O)=O)cc23)cc1` [Example 68, Methyl 4-[5-(2-methylsulfonylbenzenesulfonamino)-1H-indazol-3-yl]benzoate] were, in that order, 244 °C, 91%, 85% and 95%.
The like results for `CS(=O)(=O)c1ccccc1S(=O)(=O)Nc1ccc2[nH]nc(CCc3ccc(F)cc3)c2c1` [Example 75, N-{3-[2-(4-Fluorophenyl)ethyl]-1H-indazol-5-yl}-2-methylsulfonylbenzenesulfonamide] were, in that order, 234 °C, 82%, 35% and 87%.
Taken in the same sequence, the figures for `CS(=O)(=O)c1ccccc1S(=O)(=O)Nc1ccc2[nH]nc(CCc3ccc(Cl)cc3)c2c1` [Example 77, N-{3-[2-(4-Chlorophenyl)ethyl]-1H-indazol-5-yl}-2-methylsulfonylbenzenesulfonamide] were 215 °C, 73%, 36% and 93%.
In turn, `CS(=O)(=O)c1ccccc1S(=O)(=O)Nc1ccc2[nH]nc(/C=C/C(=O)O)c2c1.Cl` [Example 80, (E)-3-[5(2-Methylsulfonylbenzenesulfonylamino)-1H-indazol-3-yl]-acrylic acid] registered a melting point of 170 °C. For the same compound, the inhibition at 10 µM in data set [1] (setting [6]) was 66%. Moreover, the inhibition at 10 µM in data set [2] was found to be 32%. Besides, the inhibition at 10 µM in data set [3] is 89%.
Take `CS(=O)(=O)c1ccccc1S(=O)(=O)Nc1ccc2[nH]nc(CCc3ccccc3)c2c1` [Example 90, 2-Methylsulfonyl-N-(3-phenethyl-1H-indazol-5-yl)benzenesulfonamide]: the melting point is 192 °C. For the same compound, the inhibition at 10 µM in data set [1] (setting [6]) is 89%. Further, the inhibition at 10 µM in data set [2] worked out at 45%. The inhibition at 10 µM in data set [3] worked out at 100%.
In turn, `O=S(=O)(Nc1ccc2[nH]nc(-c3ccccc3)c2c1)C1CCCCC1` [Example 99, N-(3-Phenyl-1H-indazol-5-yl)cyclohexanesulfonamide] showed a melting point of 160 °C. The inhibition at 10 µM in data set [1] (setting [6]) came out at 44%. Besides, the inhibition at 10 µM in data set [2] was determined as 46%. Moreover, the inhibition at 10 µM in data set [3] was 79%.
